Measurements published in ChEMBL document CHEMBL4477240, “Electron affinity of tricyclic, bicyclic, and monocyclic compounds containing cyanoenones correlates with their potency as inducers of a cytoprotective enzyme” (Bioorg Med Chem Lett, 2016).

Biological target: T1, Nuclear factor erythroid 2-related factor 2 (Mus musculus) (UniProt Q60795)
T1 sequence (whole entry): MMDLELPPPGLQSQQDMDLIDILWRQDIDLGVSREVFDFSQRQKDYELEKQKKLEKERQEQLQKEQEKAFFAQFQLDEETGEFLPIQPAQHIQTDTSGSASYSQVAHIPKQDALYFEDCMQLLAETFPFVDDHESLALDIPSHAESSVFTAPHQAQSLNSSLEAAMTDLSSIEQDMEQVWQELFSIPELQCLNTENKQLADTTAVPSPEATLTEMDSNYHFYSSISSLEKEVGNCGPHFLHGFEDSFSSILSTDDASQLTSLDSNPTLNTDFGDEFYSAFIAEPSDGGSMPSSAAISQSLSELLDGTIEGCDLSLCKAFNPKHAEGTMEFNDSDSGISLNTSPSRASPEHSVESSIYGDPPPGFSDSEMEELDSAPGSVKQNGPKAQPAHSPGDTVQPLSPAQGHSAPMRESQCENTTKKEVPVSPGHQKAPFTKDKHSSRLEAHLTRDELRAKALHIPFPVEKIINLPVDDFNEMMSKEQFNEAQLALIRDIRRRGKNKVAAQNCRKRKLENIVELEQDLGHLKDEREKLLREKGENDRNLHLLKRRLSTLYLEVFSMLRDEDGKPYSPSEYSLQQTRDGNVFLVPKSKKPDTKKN
Assay: Activation of Nrf2 in mouse Hepa-1c1c7 cells assessed as concentration required to double specific activity of NQO1 incubated for 48 hrs
Type: cell-based

Structure (SMILES) | pCD
C#CC12C=C(C#N)C(=O)C=C1CCC2 (configuration not stated) | 7.25
CC[C@]12C=C(C#N)C(=O)C=C1[C@@]1(C)C=C(C#N)C(=O)C(C)(C)[C@@H]1CC2 | 7.74
C#CC1(C)C=CC(=O)C(C#N)=C1 (configuration not stated) | 7.67
CC1(C)C(=O)C(C#N)=C[C@]2(C)C3=CC(=O)C(C#N)=C[C@]3(C)CC[C@@H]12 | 7.74
C#CC1(C#C)C=CC(=O)C(C#N)=C1 | 6.74
CC1(C)C(=O)C(C#N)=C[C@]2(C)C3=CC(=O)C=C[C@]3(C)CC[C@@H]12 | 6.8
CC#CC1(C)C=CC(=O)C(C#N)=C1 (configuration not stated) | 7.48
C#CC12C=C(C#N)C(=O)C=C1C(C)(C)CC2 (configuration not stated) | 7
CC#C[C@]12C=C(C#N)C(=O)C=C1[C@@]1(C)C=C(C#N)C(=O)C(C)(C)[C@@H]1CC2 | 8.12
CC1(C)C=CC(=O)C(C#N)=C1 | 6.82
C=C[C@]12C=C(C#N)C(=O)C=C1[C@@]1(C)C=C(C#N)C(=O)C(C)(C)[C@@H]1CC2 | 7.52
C=CC1(C)C=CC(=O)C(C#N)=C1 (configuration not stated) | 6.82
C#CC1(CC)C=CC(=O)C(C#N)=C1 (configuration not stated) | 7.38
CC1(C)C=C(C#N)C(=O)C(C)(C)C1 | 5.72
C#CC1(C)C=C(C#N)C(=O)CC1 (configuration not stated) | 7
C#CC1(C=C)C=CC(=O)C(C#N)=C1 (configuration not stated) | 7.7
C#C[C@]12C=C(C#N)C(=O)C=C1[C@@]1(C)C=C(C#N)C(=O)C(C)(C)[C@@H]1CC2 | 9.04
